Reference: patent US20250320261A1, “ANTIBACTERIAL PEPTIDE” (priority 2021, published 2025)
Read-outs that look alike come from different tables or passages of the source. Peptide text beside a SMILES is read from it. * marks the point of attachment. Heptanoyl = CCCCCCC(=O)*; Octanoyl = CCCCCCCC(=O)*; Hexanoyl = CCCCCC(=O)*; Pentanoyl = CCCCC(=O)*

Experiments:
S. aureus = test: Checkerboard analysis of peptide-antibiotic combinations; format: cell-based, Staphylococcus aureus; conditions: combined with different antibiotics
Procedure: (§1) The broth microdilution method was used to determine minimal inhibitory concentration (MIC) and minimal bactericidal concentration (MBC). Two-fold serial dilutions of the peptides were used, and the final concentrations ranged from 0.19-100 μM. The effect of peptide-antibiotic combinations was investigated by performing a checkerboard analysis. […] The fractional inhibitory concentration (FIC) and fractional bactericidal concentration (FBC) were calculated by the equation (MIC or MBC of peptide in combination/MIC or MBC of peptide […] alone)+(MIC or MBC of antibiotic in combination/MIC or MBC of antibiotic alone). Synergy was defined as FIC/FBC≤0.5, additive when 0.5<FIC/FBC≤1, indifferent when 1<FIC/FBC<2 and antagonistic when FIC/FBC≥2. All experiments were repeated at least three times.

E. coli = test: as above; format: cell-based, Escherichia coli; conditions: combined with different antibiotics
Procedure: as §1

[1] = test system: S. aureus (ATCC 29213, MSSA); format: cell-based, Staphylococcus aureus; conditions: for antimicrobial activity against S. aureus (in words): compared with peptide #6 or the parent lipopeptide
Procedure: (§2) S. aureus (ATCC 29213, MSSA, ATCC, Manassas, VA) and E. coli (K-12 MG1655) were streaked on Luria-Bertani (LB) agar plates and incubated at 37° C. overnight. Single colonies were inoculated into 5 ml of LB broth and incubated on a shaker (400 rpm) at 37° C. overnight. The bacterial concentrations were determined by viable count and were adjusted to correlate with approximately 10^9 CFU/ml.
as §1

E. coli (K-12 MG1655) = test: Broth microdilution MIC/MBC; format: cell-based, Escherichia coli; conditions: for antimicrobial activity against E. coli (in words): compared with peptide #6 or the parent lipopeptide
Procedure: as §2, §1

[2] = test system: HaCaT keratinocytes infected with S. aureus; test: LDH cytotoxicity and cytokine secretion of S. aureus-infected HaCaT keratinocytes; format: cell-based, human; conditions: 24 h, vs positive control
Procedure: After 24 hours of exposure to Staphylococcus aureus (MOI=0.1), and three administrations of L-6-C5-N (2.5, 5, 10, 20 and 40 μM) at 1, 5 and 9 hours post infection. (A) Cytotoxicity, LDH levels normalized against negative control. (B) Interleukin-6. (C) Tumor Necrosis Factor-α. (D) CXC motif ligand 8 levels. (−) indicates negative control (uninfected/unstimulated cells), (+) indicates positive control (S. aureus-infected cells). Statistical analysis was done by ANOVA with Tukey's post hoc test. P-values are indicated by *=[…], ***=0.001.
It was evaluated whether the peptide SEQ ID NO:3 having L-amino acids and an acetylation with five carbon atoms at the N-terminal portion (L-6-C5-N) could effectively reduce an inflammatory response to a bacterial infection to HaCaT keratinocytes. After 24 hours of exposure to Staphylococcus aureus (MOI=0.1), and three administrations of L-6-C5-N SEQ ID NO:3 in different concentrations (2.5, 5, 10, 20 and 40 μM) at 1, 5 and 9 hours post infection, a LDH cytotoxicity assay was performed and IL-6, TNF-α and CXCL-8 concentrations were measured. The symbol (−) indicates negative control (uninfected/unstimulated cells), (+) indicates positive control (S. aureus-infected cells).

human erythrocytes = format: cell-based; conditions: red cells of human, 1 h, 100 μM
Procedure: FIG. 4. Hemolytic activity of SEQ ID NO 1 and SEQ ID NO 3. The hemolytic activity was determined on human erythrocytes (15% suspended in PBS) after exposure to A) SEQ ID NO: 3 with increasing length of fatty acid chains and full length PLNC8 β, B) L-enantiomers of SEQ ID NO: 3 with a fatty acid chain length of 5, 6, and 7 carbon (L-6-C5-N; L-6-C6-N; L-6-C7-N), and L-enantiomers of SEQ ID NO 1 with a fatty acid chain length of 5, 6, and 7 carbon (L-6-C5-N-Leu; L-6-C6-N-Leu; L-6-C7-N-Leu), C) D-enantiomers of SEQ ID NO: 3 with a fatty acid chain length of 5, 6, and 7 carbon (D-6-C5-N; D-6-C6-N; D-6-C7-N), and D-enantiomers of SEQ ID NO: 1 with a fatty acid chain length of 5, 6, and 7 carbon (D-6-C5-N-Leu; D-6-C6-N-Leu; D-6-C7-N-Leu). Erythrocytes were exposed to the peptides using the indicated concentrations for 1 h. […]
The hemolytic activity of the peptides was investigated by collecting blood from healthy volunteers in heparinized vacutainers. […] The plates were incubated for 1 h at 37° C. followed by centrifugation for 5 min at 900×g and absorbance measurement of the supernatants at 540 nm. Hemolytic activity (%) was calculated by subtracting the negative control from all values and normalization against the positive control (0.5% Triton X-100), that was set to 100%. […]

Molecule | MBC E. coli (E. coli (K-12 MG1655); broth microdilution) | MIC E. coli (E. coli (K-12 MG1655); broth microdilution) | MBC S. aureus ([1]; ATCC 29213, 20 h) | MIC S. aureus ([1]; ATCC 29213, 20 h) | also measured
6-C2-N: peptide #6 (SEQ ID NO: 3) acetylated with two carbon atoms at the N-terminal (Ac-LGIKILWSAYKHRKTI-NH2) [Peptide 6-C2-N] |  |  |  |  | interaction with antibiotics (FIC/FBC) against S. aureus (S. aureus): additive or synergistic; interaction with antibiotics (FIC/FBC) against E. coli (E. coli): additive or synergistic
6-C5-N: SEQ ID NO:3 having L-amino acids and an acetylation with five carbon atoms at the N-terminal portion (Pentanoyl-LGIKILWSAYKHRKTI-NH2) [Peptide 6-C5-N] |  |  |  |  | antimicrobial activity against S. aureus (in words) [1]: maximum; antimicrobial activity against E. coli (in words) (E. coli (K-12 MG1655)): maximum; IL-6 secretion, infected HaCaT ([2]; MOI=0.1, 2.5-40 μM at 1, 5 and 9 h post infection): significantly reduced; cell lysis (LDH) of S. aureus-infected HaCaT keratinocytes ([2]; MOI=0.1, 2.5-40 μM given at 1, 5 and 9 h post infection): significantly reduced; interaction with antibiotics (FIC/FBC) against S. aureus (S. aureus): additive or synergistic; interaction with antibiotics (FIC/FBC) against E. coli (E. coli): additive or synergistic
6-C6-N: L-enantiomer of SEQ ID NO: 3 with a fatty acid chain length of 6 carbon (Hexanoyl-LGIKILWSAYKHRKTI-NH2; also: C6 fatty acid chain, site not given here) [Peptide 6-C6-N] |  |  |  |  | antimicrobial activity against S. aureus (in words) [1]: maximum; antimicrobial activity against E. coli (in words) (E. coli (K-12 MG1655)): maximum
CCCCCCC(=O)N[C@@H](CC(C)C)C(=O)NCC(=O)N[C@H](C(=O)N[C@@H](CCCCN)C(=O)N[C@H](C(=O)N[C@@H](CC(C)C)C(=O)N[C@@H](Cc1c[nH]c2ccccc12)C(=O)N[C@@H](CO)C(=O)N[C@@H](C)C(=O)N[C@@H](Cc1ccc(O)cc1)C(=O)N[C@@H](CCCCN)C(=O)N[C@@H](Cc1c[nH]cn1)C(=O)N[C@@H](CCCNC(=N)N)C(=O)N[C@@H](CCCCN)C(=O)N[C@H](C(=O)N[C@H](C(N)=O)[C@@H](C)CC)[C@@H](C)O)[C@@H](C)CC)[C@@H](C)CC [Peptide 6-C7-N] (Heptanoyl-LGIKILWSAYKHRKTI-NH2) |  |  |  |  | hemolytic activity (human erythrocytes): around 10%
CCCCCCCC(=O)N[C@@H](CC(C)C)C(=O)NCC(=O)N[C@H](C(=O)N[C@@H](CCCCN)C(=O)N[C@H](C(=O)N[C@@H](CC(C)C)C(=O)N[C@@H](Cc1c[nH]c2ccccc12)C(=O)N[C@@H](CO)C(=O)N[C@@H](C)C(=O)N[C@@H](Cc1ccc(O)cc1)C(=O)N[C@@H](CCCCN)C(=O)N[C@@H](Cc1c[nH]cn1)C(=O)N[C@@H](CCCNC(=N)N)C(=O)N[C@@H](CCCCN)C(=O)N[C@H](C(=O)N[C@H](C(N)=O)[C@@H](C)CC)[C@@H](C)O)[C@@H](C)CC)[C@@H](C)CC [Peptide 6-C8-N] (Octanoyl-LGIKILWSAYKHRKTI-NH2) | 12.5 µM | 12.5 µM |  |  | antimicrobial activity against S. aureus (in words) [1]: did not affect the antimicrobial activity
Ac-ILWSAYKHR-NH2 [Peptide S2] | >100 µM | >100 µM |  |  | 
Ac-KILWSAYKHR-NH2 [Peptide S1] | >100 µM | >100 µM |  |  | 
Ac-LGIKILRSARKFGKVIEKSF-NH2 [Peptide 15] | >100 µM | >100 µM | >100 µM | >100 µM | 
Ac-LGIKILWSARKFGKVIEKSF-NH2 [Peptide 16] | >100 µM | >100 µM | >100 µM | >100 µM | 
Ac-LGIKILWSAYKHRKTI-NH2 [Peptide 6] | 50 µM | 50 µM |  |  | MBC S. aureus ([1]; broth microdilution): 100 µM; MIC S. aureus ([1]; broth microdilution): 100 µM; antimicrobial activity against E. coli (in words) (E. coli (K-12 MG1655)): comparable to the activity of LL-37
Ac-LGQKILRSARKFGKDIEKSF-NH2 [Peptide 14] | >100 µM | >100 µM | >100 µM | >100 µM | 
Ac-LGQKILRSARKFGKTIEKSF-NH2 [Peptide 13] | >100 µM | >100 µM | >100 µM | >100 µM | 
Ac-LLGIKILWKARKFGKVIEKSF-NH2 [Peptide 18] | >100 µM | 100 µM | >100 µM | >100 µM | 
Ac-LLGIKILWSARKFGKVIEKSF-NH2 [Peptide 17] | >100 µM | >100 µM | >100 µM | >100 µM | 
Ac-LWSAYKHR-NH2 [Peptide S3] | >100 µM | >100 µM |  |  | 
Ac-SVPTSVYTLGIKILWSAYKHRKTIEKSFNKGFYH-NH2 (N-terminus and C-terminus assumed) [PLNC8 β, reference compound] |  |  |  |  | MBC S. aureus ([1]; ATCC 29213): >100 µM; MIC S. aureus ([1]; ATCC 29213): >100 µM; MBC E. coli (E. coli (K-12 MG1655); K-12): >100 µM; MIC E. coli (E. coli (K-12 MG1655); K-12): >100 µM; antimicrobial activity against E. coli (in words) (E. coli (K-12 MG1655)): no activity
Ac-TLGIKILWSAYKHRKT-NH2 [Peptide 5] | >100 µM | >100 µM | >100 µM | >100 µM | 
Ac-WSAYK-NH2 [Peptide S6, WSAYK] | >100 µM | >100 µM |  |  | 
Ac-WSAYKH-NH2 [Peptide S5, WSAYKH] | >100 µM | >100 µM |  |  | 
Ac-WSAYKHR-NH2 [Peptide S4, WSAYKHR] | >100 µM | >100 µM |  |  | 
Ac-YTLGIKILWSAYKHRK-NH2 [Peptide 4] | >100 µM | >100 µM | >100 µM | >100 µM | 
